Laboratory results published in US20240299360A1, “ADAMTS INHIBITORS, PREPARATION METHODS AND MEDICINAL USES THEREOF” (Jiangsu Hengrui Pharmaceuticals Co., Ltd., priority 2020, published 2024).
pIC50: −log10 of the molar value.

Key:
[1] = tested on: mouse femoral head cartilage; assay: Mouse explant assay (IL-1α induced GAG release); type: cell-based; conditions: inhibition of GAG release, IL-1α 1 ng/ml, 72 hours; for inhibition at 2 µM: compound 2 μM; for inhibition at 20 µM: compound 20 μM
Experimental: In this assay, fresh mouse femoral head cartilage was treated with IL-1α protein (Sigma-Aldrich, catalog #12778) in culture media, which induces the cartilage catabolism. Then, the GAGs attached to the cleaved aggrecan fragments (released in the media) and the GAGs attached to the intact aggrecan were measured by dimethylmethylene blue dye in the Glycosaminoglycans Assay Kit (Chondrex, catalog #6022).
Femoral head cartilage samples were isolated from mice (25 days old, male, C57BL/6, from Charles River Lab) and put into 2.0 ml tubes filled-up with media (DMEM, 10% FBS, 4 mM Glutamine, penicillin-streptomycin, 20 mM HEPES). Two hundred μl of media without FBS was added to each well of a 48-well plate, and one piece of cartilage was transferred to a well in the plate. Then the media was aspirated, and compounds and IL-1α protein were added to the plate in a total volume of 400 μl of fresh media without FBS. The final concentration of IL-1α was 1 ng/ml. The plate was incubated at 37° C. for 72 hours in a humidified incubator with 5% CO2 supply.
The supernatant was transferred to a 1.5 ml tube and kept at −20° C. Each cartilage sample was transferred to another 1.5 ml tube containing 400 μl of freshly made papain solution. The papain solution contained 125 μg/ml papain (Sigma-Aldrich, catalog #P3125), 0.1 M sodium acetate (Sigma-Aldrich, catalog #S7899), pH 5.5 and 5 mM EDTA and 5 mM L-cysteine-HCl (Sigma-Aldrich, catalog #C7880). The cartilage samples were kept rocking in a 60° C. water bath for 24 hours. The lysates were vortexed for 10 seconds and spinned at 10,000 rpm for 2 minutes.
Both the supernatant and the lysate samples were diluted with PBS and mixed with 100 μl of dye from the Glycosaminoglycans Assay Kit. The optical density from each well was determined with a TECAN plate reader set to a wavelength of 525 nm.
The concentrations of GAGs in the supernatant and lysates were determined based on the standard curve with a dose range of chondroitin sulfate provided in the kit. The percentage of GAG release was calculated as the following
The test compound effect was expressed as the percent of inhibition using the following formula: […]

[2] = biological target: T1, ADAMTS-5 recombinant protein (Homo sapiens (Human), UniProt Q9UNA0); assay: In vitro ELISA of ADAMTS-5 activity (Aggrecan-IGD enzymatic assay); type: biochemical; conditions: aggrecan-IGD substrate, ARGSVIL-peptide ELISA, 37° C. 45 minutes
Experimental: In this assay, the enzymatic activity of recombinant ADAMTS-5 protein (catalog #2198-AD, R&D Systems) was assayed with a protein substrate, the aggrecan IGD protein. The aggrecan IGD protein is a polypeptide connecting human aggrecan globular domains 1 and 2 (T331-G458) expressed in E. Coli with a C-terminal His-tag (catalog #30411000, BIOTEZ). The enzymatic product ARGSVIL-peptide was detected using an ELISA kit from BioTEZ (catalog #30510111).
An assay buffer containing 50 mM HEPES pH 7.5, 100 mM NaCl, 5 mM CaCl2), 0.1% CHAPS and 5% Glycerol was prepared. Recombinant ADAMTS-5 protein was diluted to 0.3 nM in the assay buffer. Ten μl of […] and 10 μl of compound solution was transferred to each well of a 96-well plate and incubated at room temperature for 15 minutes. Substrate aggrecan-IGD was diluted to 100 nM with the assay buffer and 20 μl was added to each well. The plate was incubated at 37° C. for 45 minutes. After incubation, the newly generated epitope ARGSVIL-peptides were measured using the Aggrecanase Activity ELISA Assay Kit following the manufacturer's instructions. Then, 100 μl of stop solution was added and the absorbance of each well was read at 450 nm, using […] as reference on a TECAN plate reader.
A standard curve of the ELISA assay was generated in GraphPad Prism using Sigmoidal 4PL function and the corresponding peptide concentrations were calculated based on the standard curve. The IC50 values were calculated using function “log (inhibitor) vs. response—Variable slope (four parameters)”. (See Table 2).

[3] = biological target: T1, ADAMTS-5 recombinant protein; assay: In vitro fluorescence (FRET-peptide) enzymatic assay of ADAMTS-5 activity; type: biochemical; conditions: FRET peptide substrate 8 μM, 10 nM enzyme, 37° C. 3 hours
Experimental: (§1) A FRET (fluorescence resonance energy transfer) peptide was cleaved by recombinant ADAMTS-4 or ADAMTS-5 proteins into two separate fragments resulting in an increase of fluorescence signal which was quantified. The peptide was 5-FAM-[…](5-TAMRA)K-NH2, customized from ANASPEC. ADAMTS-4 recombinant protein (catalog #4307-AD) and ADAMTS-5 recombinant protein (catalog #2198-AD) were purchased from R&D Systems.
(§2) An assay buffer containing 50 mM HEPES pH 7.5, 100 mM NaCl, 5 mM CaCl2, 0.1% CHAPS and 5% Glycerol was prepared. A volume of 2.5 μl of compound in the assay buffer was dispensed to a 384-well plate, and 2.5 μl of ADAMTS-4 or ADAMTS-5 protein (final concentration in the reaction was 10 nM) was added. The compounds and proteins were pre-incubated at room temperature for 15 minutes. Then, 5 μl of substrate was added to each well. The final substrate concentrations for ADAMTS-4 and ADAMTS-5 were 15 μM and 8 μM, respectively. The fluorescence signal in each well was determined, after incubation at 37° C. for 3 hours, on a TECAN plate reader (Excitation, 490 nm; Emission, 520 nm).
(§3) The data was inputted into GraphPad Prism, and the IC50 values were calculated using function “log (inhibitor) vs. response—Variable slope (four parameters)”. (See Table 1)

[4] = biological target: ADAMTS-4 recombinant protein (Homo sapiens (Human), UniProt O75173); assay: In vitro fluorescence (FRET-peptide) enzymatic assay of ADAMTS-4 activity; type: biochemical; conditions: FRET peptide substrate 15 μM, 10 nM enzyme, 37° C. 3 hours
Experimental: as §1, §2, §3

ADAMTS-4 recombinant protein, sequence (O75173 213-685): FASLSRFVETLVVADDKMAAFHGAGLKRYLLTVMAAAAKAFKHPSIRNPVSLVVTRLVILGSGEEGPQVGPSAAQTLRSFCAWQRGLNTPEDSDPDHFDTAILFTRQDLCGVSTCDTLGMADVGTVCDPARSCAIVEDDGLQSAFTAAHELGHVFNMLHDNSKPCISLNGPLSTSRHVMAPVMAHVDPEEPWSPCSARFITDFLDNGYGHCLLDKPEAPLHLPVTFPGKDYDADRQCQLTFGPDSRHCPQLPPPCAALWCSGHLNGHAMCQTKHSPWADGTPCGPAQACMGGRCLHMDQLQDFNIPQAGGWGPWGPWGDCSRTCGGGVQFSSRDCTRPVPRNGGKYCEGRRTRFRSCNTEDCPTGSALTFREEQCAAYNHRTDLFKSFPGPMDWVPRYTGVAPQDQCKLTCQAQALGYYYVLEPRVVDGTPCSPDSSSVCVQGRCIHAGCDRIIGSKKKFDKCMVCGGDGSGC
T1 sequence (Q9UNA0 262-622): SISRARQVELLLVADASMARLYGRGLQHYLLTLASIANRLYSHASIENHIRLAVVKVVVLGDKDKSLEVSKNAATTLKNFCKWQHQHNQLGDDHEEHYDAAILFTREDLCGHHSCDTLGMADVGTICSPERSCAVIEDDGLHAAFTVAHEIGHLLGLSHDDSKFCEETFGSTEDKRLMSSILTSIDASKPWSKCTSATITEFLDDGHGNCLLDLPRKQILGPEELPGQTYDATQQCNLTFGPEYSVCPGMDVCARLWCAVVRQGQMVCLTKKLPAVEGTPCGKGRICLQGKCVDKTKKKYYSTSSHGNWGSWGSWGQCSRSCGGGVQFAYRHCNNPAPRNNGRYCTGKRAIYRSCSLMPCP

Compound | inhibition at 2 µM [1] [%] | inhibition at 20 µM [1] [%] | pIC50 [2] | pIC50 [3] | pIC50 [4]
O=C1NC(=O)[C@](CCC(=O)N2Cc3ccc(C(F)(F)F)cc3C2)(C2CC2)N1 [Example 1, (S)-5-cyclopropyl-5-(3-oxo-3-(5-(trifluoromethyl)isoindolin-2-yl)propyl)imidazolidine-2,4-dione] | 27 | 61 | 6.85 | 7.06 | 7.22
COc1ccc2c(c1)CCN(C(=O)CC[C@@]1(C3CC3)NC(=O)NC1=O)CC2 [Example 5, (S)-5-cyclopropyl-5-(3-(7-methoxy-4,5-dihydro-1H-benzo [d]azepin-3 (2H)-yl)-3-oxopropyl)imidazolidine-2,4-dione] | 19 | 51 | 6.62 | 7.14 | 7.34
CC1CN(C(=O)CC[C@@]2(C3CC3)NC(=O)NC2=O)CCc2ccc(Cl)cc21 (stereo partly drawn) [Example 8, (5S)-5-(3-(8-chloro-1-methyl-4,5-dihydro-1H-benzo[d]azepin-3 (2H)-yl)-3-oxopropyl)-5-cyclopropylimidazolidine-2,4-dione] | 22 | 63 | 6.89 | 7.28 | 7.18
O=C1NC(=O)[C@](CCC(=O)N2CCc3ccccc3CC2)(C2CC2)N1 [Example 9, (S)-5-cyclopropyl-5-(3-(4,5-dihydro-1H-benzo[d]azepin-3 (2H)-yl)-3-oxopropyl)imidazolidine-2,4-dione] | 22 | 55 | 7.25 | 7.43 | 7.38
O=C1NC(=O)[C@](CCC(=O)N2Cc3cc(Cl)c(Cl)cc3C2)(C2CC2)N1 [Example 20, (S)-5-cyclopropyl-5-(3-(5,6-dichloroisoindolin-2-yl)-3-oxopropyl)imidazolidine-2,4-dione] | 67 | 100 | – | 7.43 | 7.66
C[C@H]1CN(C(=O)CC[C@@]2(C3CC3)NC(=O)NC2=O)CCc2ccc(Cl)cc21 [Example 21, (S)-5-(3-((R)-8-chloro-1-methyl-1,2,4,5-tetrahydro-3H-benzo[d]azepin-3-yl)-3-oxopropyl)-5-cyclopropylimidazolidine-2,4-dione] | 39 | 100 | – | 7.80 | 7.70
O=C1NC(=O)[C@](CCC(=O)N2Cc3cc(Cl)c(C(F)(F)F)cc3C2)(C2CC2)N1 [Example 40, (S)-5-(3-(5-chloro-6-(trifluoromethyl)isoindolin-2-yl)-3-oxopropyl)-5-cyclopropylimidazolidine-2,4-dione] | 2 | 52 | 7.04 | 7.60 | 7.38
O=C1NC(=O)C(CC(CO)C(=O)N2Cc3cc(Cl)c(Cl)cc3C2)(C2CC2)N1 (stereo not shown) [Example 42, 5-cyclopropyl-5-(3-(5,6-dichloroisoindolin-2-yl)-2-(hydroxymethyl)-3-oxopropyl)imidazolidine-2,4-dione] | 51 | 92 | 7.77 | 7.85 | 7.96
O=C1NC(=O)[C@](CCC(=O)N2CCc3ccc(F)cc3CC2)(C2CC2)N1 [Example 44, (S)-5-cyclopropyl-5-(3-(7-fluoro-1,2,4,5-tetrahydro-3H-benzo[d]azepin-3-yl)-3-oxopropyl)imidazolidine-2,4-dione] | 13 | 70 | 7.29 | 7.43 | 7.82
O=C1NC(=O)[C@](CCC(=O)N2CCc3ccc(C(F)(F)F)cc3CC2)(C2CC2)N1 [Example 45, (S)-5-cyclopropyl-5-(3-oxo-3-(7-(trifluoromethyl)-1,2,4,5-tetrahydro-3H-benzo[d]azepin-3-yl)propyl)imidazolidine-2,4-dione] | 45 | 96 | 7.60 | 7.92 | 7.72
O=C1NC(=O)[C@](CCC(=O)N2Cc3ccc(C(F)F)cc3C2)(C2CC2)N1 [Example 52, (S)-5-cyclopropyl-5-(3-(5-(difluoromethyl)isoindolin-2-yl)-3-oxopropyl)imidazolidine-2,4-dione] | 10 | 48 | 7.32 | 7.18 | 7.52
O=C1NC(=O)[C@](CCC(=O)N2Cc3cc(Br)c(C(F)(F)F)cc3C2)(C2CC2)N1 [Example 59, (S)-5-(3-(5-bromo-6-(trifluoromethyl)isoindolin-2-yl)-3-oxopropyl)-5-cyclopropylimidazolidine-2,4-dione] | 16 | 66 | 7.34 | 7.34 | 7.09
C[C@@H]1c2cc(Cl)c(Cl)cc2CN1C(=O)CC[C@@]1(C2CC2)NC(=O)NC1=O [Example 66-2, (S)-5-cyclopropyl-5-(3-((R)-5,6-dichloro-1-methylisoindolin-2-yl)-3-oxopropyl)imidazolidine-2,4-dione] | 23 | 87 | 7.72 | 8.00 | 7.92
[2H]C1([2H])c2cc(Cl)c(Cl)cc2C([2H])([2H])N1C(=O)CC[C@@]1(C2CC2)NC(=O)NC1=O [Example 80, (S)-5-cyclopropyl-5-(3-(5,6-dichloroisoindolin-2-yl-1,1,3,3-d4)-3-oxopropyl)imidazolidine-2,4-dione] | 30 | 73 | – | 7.49 | 7.55
Cc1nc(C2(CCC(=O)N3Cc4cc(Cl)c(C(F)(F)F)cc4C3)NC(=O)NC2=O)co1 (stereo not shown) [Example 81, 5-(3-(5-chloro-6-(trifluoromethyl)isoindolin-2-yl)-3-oxopropyl)-5-(2-methyloxazol-4-yl)imidazolidine-2,4-dione] | – | – | 6.92 | 7.11 | 6.59
